According to paper PMC4823954, “From fighting depression to conquering tumors: a novel tricyclic thiazepine compound as a tubulin polymerization inhibitor” (Cell Death & Disease, 2016):

Experiments:
Experiment in all cases: KINOMEscan
Assay type in all cases: binding
Conditions in all cases: read-out: % Ctrl
MST1 = molecular target: T1, MST1 (Homo sapiens, UniProt Q13043)
T1 construct: purchased DiscoveRx KINOMEscan
Protocol: (§1) The binding assay for 442 non-mutant kinases was performed using KINOMEscan (DiscoveRx Corporation, Fremont, CA, USA) as reported previously.[58], [59] TBPT was screened at concentrations of 5 and 10 μM to identify the affected kinases. KINOMEscan is based on a competition reaction that quantitatively measures the ability of a test compound to compete with an active site-directed ligand for binding to the kinase active site. […] After the assay plates were incubated with shaking for 1 h, the liganded beads were washed with washing buffer (1 × PBS and 0.05% Tween 20). Then, the beads were re-suspended in elution buffer (1 × PBS, 0.05% Tween 20, and 0.5 μM ligand) and incubated with shaking for 30 min. The kinase concentration in the eluates was measured via qPCR. The results are represented as ‘%Ctrl', which was calculated using the following formula: (test compound signal–positive control signal)/(DMSO signal–positive control signal) × 100%. A lower % Ctrl indicates stronger binding to the kinase active site.

ERK5 = molecular target: T2, ERK5 (Homo sapiens, UniProt Q13164)
T2 construct: purchased DiscoveRx KINOMEscan
Protocol: as §1

PAK3 = molecular target: T3, PAK3 (Homo sapiens, UniProt O75914)
T3 construct: purchased DiscoveRx KINOMEscan
Protocol: as §1

HCK = molecular target: T4, HCK (Homo sapiens, UniProt P08631)
T4 construct: purchased DiscoveRx KINOMEscan
T4 sequence (P08631 whole entry): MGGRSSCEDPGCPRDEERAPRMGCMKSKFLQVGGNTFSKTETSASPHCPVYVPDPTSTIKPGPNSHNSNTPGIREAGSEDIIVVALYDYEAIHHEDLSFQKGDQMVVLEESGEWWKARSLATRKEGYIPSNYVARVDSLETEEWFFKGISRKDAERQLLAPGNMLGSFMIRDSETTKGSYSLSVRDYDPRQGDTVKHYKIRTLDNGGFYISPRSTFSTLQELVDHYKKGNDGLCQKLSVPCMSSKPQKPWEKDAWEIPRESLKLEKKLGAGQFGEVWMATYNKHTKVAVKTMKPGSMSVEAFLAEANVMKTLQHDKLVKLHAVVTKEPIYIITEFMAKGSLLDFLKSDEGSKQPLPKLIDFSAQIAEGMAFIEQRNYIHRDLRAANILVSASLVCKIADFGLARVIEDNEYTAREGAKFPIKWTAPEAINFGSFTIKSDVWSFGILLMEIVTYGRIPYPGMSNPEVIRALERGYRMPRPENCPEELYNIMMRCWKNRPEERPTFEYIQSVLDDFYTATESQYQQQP
Protocol: as §1

EGFR(S752-I759del) = molecular target: T5, EGFR(S752-I759del) (Homo sapiens, UniProt P00533, DEL752-759)
T5 construct: purchased DiscoveRx KINOMEscan
Protocol: as §1

ADCK3 = molecular target: T6, ADCK3 (Homo sapiens, UniProt Q8NI60)
T6 construct: purchased DiscoveRx KINOMEscan
Protocol: as §1

[1] = molecular target: T7, ABL1(Q252H)-nonphosphorylated (Homo sapiens, UniProt P00519, Q252H)
T7 construct: purchased DiscoveRx KINOMEscan
Protocol: as §1

KIT(V559D,T670I) = molecular target: T8, KIT(V559D,T670I) (Homo sapiens, UniProt P10721, T670I/V559D)
T8 construct: purchased DiscoveRx KINOMEscan
Protocol: as §1

CSNK2A1 = molecular target: T9, CSNK2A1 (Homo sapiens, UniProt P68400)
T9 construct: purchased DiscoveRx KINOMEscan
T9 sequence (P68400 whole entry): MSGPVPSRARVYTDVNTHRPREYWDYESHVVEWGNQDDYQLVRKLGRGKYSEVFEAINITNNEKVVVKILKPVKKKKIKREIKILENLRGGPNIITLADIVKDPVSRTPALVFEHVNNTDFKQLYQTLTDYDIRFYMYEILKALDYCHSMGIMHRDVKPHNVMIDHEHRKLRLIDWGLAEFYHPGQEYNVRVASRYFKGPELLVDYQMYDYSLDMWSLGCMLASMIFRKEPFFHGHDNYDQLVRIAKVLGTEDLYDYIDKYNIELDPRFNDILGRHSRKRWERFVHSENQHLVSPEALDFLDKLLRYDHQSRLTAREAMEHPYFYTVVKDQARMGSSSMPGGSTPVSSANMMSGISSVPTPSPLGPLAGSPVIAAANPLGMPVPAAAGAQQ
Protocol: as §1

PRKCI = molecular target: T10, PRKCI (Homo sapiens, UniProt P41743)
T10 construct: purchased DiscoveRx KINOMEscan
Protocol: as §1

DRAK1 = molecular target: T11, DRAK1 (Homo sapiens, UniProt Q9UEE5)
T11 construct: purchased DiscoveRx KINOMEscan
T11 sequence (Q9UEE5 whole entry): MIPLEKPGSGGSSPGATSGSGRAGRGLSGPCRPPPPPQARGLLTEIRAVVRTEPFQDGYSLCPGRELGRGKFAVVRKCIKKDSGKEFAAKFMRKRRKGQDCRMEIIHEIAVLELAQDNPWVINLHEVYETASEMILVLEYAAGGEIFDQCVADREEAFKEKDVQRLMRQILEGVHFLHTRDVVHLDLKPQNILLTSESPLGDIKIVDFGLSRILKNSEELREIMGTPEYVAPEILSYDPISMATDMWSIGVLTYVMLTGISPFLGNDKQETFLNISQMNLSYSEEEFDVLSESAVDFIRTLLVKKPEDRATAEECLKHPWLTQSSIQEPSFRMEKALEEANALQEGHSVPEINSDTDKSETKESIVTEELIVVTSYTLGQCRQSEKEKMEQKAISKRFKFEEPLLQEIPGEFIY
Protocol: as §1

JNK2 = molecular target: T12, JNK2 (Homo sapiens, UniProt P45984)
T12 construct: purchased DiscoveRx KINOMEscan
Protocol: as §1

PIM3 = molecular target: T13, PIM3 (Homo sapiens, UniProt Q86V86)
T13 construct: purchased DiscoveRx KINOMEscan
Protocol: as §1

PLK2 = molecular target: T14, PLK2 (Homo sapiens, UniProt Q9NYY3)
T14 construct: purchased DiscoveRx KINOMEscan
Protocol: as §1

TIE2 = molecular target: T15, TIE2 (Homo sapiens, UniProt Q02763)
T15 construct: purchased DiscoveRx KINOMEscan
Protocol: as §1

PYK2 = molecular target: T16, PYK2 (Homo sapiens, UniProt Q14289)
T16 construct: purchased DiscoveRx KINOMEscan
Protocol: as §1

MAP4K5 = molecular target: T17, MAP4K5 (Homo sapiens, UniProt Q9Y4K4)
T17 construct: purchased DiscoveRx KINOMEscan
Protocol: as §1

GRK4 = molecular target: T18, GRK4 (Homo sapiens, UniProt P32298)
T18 construct: purchased DiscoveRx KINOMEscan
T18 sequence (P32298 whole entry): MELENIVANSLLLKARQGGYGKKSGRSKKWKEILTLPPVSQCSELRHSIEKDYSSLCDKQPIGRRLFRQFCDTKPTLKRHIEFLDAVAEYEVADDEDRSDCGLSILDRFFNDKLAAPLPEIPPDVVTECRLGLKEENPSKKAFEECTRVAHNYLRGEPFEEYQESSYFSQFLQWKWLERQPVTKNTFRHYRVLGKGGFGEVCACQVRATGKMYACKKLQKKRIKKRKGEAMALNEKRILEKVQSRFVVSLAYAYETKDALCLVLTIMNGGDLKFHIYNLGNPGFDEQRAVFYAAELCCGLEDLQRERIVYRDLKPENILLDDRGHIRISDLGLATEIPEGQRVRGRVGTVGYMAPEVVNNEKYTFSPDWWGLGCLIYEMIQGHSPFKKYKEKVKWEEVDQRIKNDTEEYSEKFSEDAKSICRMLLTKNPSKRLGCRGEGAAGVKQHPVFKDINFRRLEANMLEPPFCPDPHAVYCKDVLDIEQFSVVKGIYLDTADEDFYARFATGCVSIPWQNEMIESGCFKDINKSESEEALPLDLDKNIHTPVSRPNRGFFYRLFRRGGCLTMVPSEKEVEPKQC
Protocol: as §1

MUSK = molecular target: T19, MUSK (Homo sapiens, UniProt O15146)
T19 construct: purchased DiscoveRx KINOMEscan
Protocol: as §1

MAK = molecular target: T20, MAK (Homo sapiens, UniProt P20794)
T20 construct: purchased DiscoveRx KINOMEscan
Protocol: as §1

ZAK = molecular target: T21, ZAK (Homo sapiens, UniProt Q9NYL2)
T21 construct: purchased DiscoveRx KINOMEscan
Protocol: as §1

ERK3 = molecular target: T22, ERK3 (Homo sapiens, UniProt Q16659)
T22 construct: purchased DiscoveRx KINOMEscan
T22 sequence (Q16659 whole entry): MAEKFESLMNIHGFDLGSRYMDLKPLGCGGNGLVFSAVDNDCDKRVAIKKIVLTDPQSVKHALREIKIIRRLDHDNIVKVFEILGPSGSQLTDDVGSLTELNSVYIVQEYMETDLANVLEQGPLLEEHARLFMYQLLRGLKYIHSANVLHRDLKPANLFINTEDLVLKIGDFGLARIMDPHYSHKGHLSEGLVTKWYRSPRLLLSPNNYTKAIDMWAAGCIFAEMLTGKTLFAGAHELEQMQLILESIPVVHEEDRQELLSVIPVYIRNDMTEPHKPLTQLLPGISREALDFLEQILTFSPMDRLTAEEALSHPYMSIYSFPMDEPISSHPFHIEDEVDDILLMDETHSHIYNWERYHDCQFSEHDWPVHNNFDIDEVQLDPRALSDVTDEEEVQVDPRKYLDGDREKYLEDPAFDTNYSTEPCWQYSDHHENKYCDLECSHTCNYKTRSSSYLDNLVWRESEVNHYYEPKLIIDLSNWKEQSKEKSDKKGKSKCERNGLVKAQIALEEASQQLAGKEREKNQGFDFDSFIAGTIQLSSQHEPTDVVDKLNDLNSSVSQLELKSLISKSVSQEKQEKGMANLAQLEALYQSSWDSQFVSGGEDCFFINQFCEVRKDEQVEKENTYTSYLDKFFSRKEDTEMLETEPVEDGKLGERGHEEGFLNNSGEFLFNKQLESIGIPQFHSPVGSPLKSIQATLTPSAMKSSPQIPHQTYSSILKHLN
Protocol: as §1

CSNK1E = molecular target: T23, CSNK1E (Homo sapiens, UniProt P49674)
T23 construct: purchased DiscoveRx KINOMEscan
T23 sequence (P49674 whole entry): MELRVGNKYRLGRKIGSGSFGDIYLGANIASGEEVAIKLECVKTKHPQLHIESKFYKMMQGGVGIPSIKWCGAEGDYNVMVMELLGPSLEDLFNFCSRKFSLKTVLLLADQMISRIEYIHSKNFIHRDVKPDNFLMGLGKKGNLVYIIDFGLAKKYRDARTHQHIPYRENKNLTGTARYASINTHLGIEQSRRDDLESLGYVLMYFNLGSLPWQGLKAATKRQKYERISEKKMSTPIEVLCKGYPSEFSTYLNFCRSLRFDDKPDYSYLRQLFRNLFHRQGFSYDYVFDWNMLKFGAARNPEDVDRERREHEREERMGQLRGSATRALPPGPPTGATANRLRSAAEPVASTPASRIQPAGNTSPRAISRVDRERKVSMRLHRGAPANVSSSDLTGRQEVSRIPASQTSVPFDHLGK
Protocol: as §1

TEC = molecular target: T24, TEC (Homo sapiens, UniProt P42680)
T24 construct: purchased DiscoveRx KINOMEscan
T24 sequence (P42680 whole entry): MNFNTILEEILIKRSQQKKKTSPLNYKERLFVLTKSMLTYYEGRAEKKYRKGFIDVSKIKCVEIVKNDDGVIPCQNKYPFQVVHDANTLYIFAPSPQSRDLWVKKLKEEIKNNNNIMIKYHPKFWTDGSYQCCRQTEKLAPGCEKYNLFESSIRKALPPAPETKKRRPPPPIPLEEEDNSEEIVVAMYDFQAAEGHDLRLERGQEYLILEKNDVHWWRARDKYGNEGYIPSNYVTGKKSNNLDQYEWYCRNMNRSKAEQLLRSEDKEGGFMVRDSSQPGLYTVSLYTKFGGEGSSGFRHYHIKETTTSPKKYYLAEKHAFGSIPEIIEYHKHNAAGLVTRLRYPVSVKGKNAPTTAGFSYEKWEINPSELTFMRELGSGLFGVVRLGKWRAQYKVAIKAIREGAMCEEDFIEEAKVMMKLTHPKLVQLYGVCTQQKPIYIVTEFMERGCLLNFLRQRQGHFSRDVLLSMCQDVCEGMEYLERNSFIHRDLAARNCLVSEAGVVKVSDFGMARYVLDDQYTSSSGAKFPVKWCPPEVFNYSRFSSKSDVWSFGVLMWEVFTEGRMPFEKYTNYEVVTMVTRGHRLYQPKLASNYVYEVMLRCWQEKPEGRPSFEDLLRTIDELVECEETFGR
Protocol: as §1

[2] = molecular target: T25, RSK1(Kin.Dom.1-N-terminal) (Homo sapiens, UniProt Q15418)
T25 construct: RSK1(Kin.Dom.1-N-terminal); purchased DiscoveRx KINOMEscan
Protocol: as §1

CAMKK2 = molecular target: T26, CAMKK2 (Homo sapiens, UniProt Q96RR4)
T26 construct: purchased DiscoveRx KINOMEscan
Protocol: as §1

PFTK1 = molecular target: T27, PFTK1 (Homo sapiens, UniProt O94921)
T27 construct: purchased DiscoveRx KINOMEscan
Protocol: as §1

IRAK4 = molecular target: T28, IRAK4 (Homo sapiens, UniProt Q9NWZ3)
T28 construct: purchased DiscoveRx KINOMEscan
T28 sequence (Q9NWZ3 whole entry): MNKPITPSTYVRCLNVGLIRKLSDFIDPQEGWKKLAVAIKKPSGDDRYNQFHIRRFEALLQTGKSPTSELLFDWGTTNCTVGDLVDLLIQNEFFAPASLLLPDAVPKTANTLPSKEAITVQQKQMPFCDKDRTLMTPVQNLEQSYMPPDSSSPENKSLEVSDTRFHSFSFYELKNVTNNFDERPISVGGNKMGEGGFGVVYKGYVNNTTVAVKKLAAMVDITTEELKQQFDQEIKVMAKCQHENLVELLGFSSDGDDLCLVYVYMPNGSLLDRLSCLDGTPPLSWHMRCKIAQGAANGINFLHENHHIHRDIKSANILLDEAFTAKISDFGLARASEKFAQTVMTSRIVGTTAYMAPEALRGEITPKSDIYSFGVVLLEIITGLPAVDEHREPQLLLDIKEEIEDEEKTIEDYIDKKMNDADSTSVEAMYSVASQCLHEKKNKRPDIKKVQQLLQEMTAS
Protocol: as §1

IKK-alpha = molecular target: T29, IKK-alpha (Homo sapiens, UniProt O15111)
T29 construct: purchased DiscoveRx KINOMEscan
Protocol: as §1

T1 sequence (Q13043 whole entry): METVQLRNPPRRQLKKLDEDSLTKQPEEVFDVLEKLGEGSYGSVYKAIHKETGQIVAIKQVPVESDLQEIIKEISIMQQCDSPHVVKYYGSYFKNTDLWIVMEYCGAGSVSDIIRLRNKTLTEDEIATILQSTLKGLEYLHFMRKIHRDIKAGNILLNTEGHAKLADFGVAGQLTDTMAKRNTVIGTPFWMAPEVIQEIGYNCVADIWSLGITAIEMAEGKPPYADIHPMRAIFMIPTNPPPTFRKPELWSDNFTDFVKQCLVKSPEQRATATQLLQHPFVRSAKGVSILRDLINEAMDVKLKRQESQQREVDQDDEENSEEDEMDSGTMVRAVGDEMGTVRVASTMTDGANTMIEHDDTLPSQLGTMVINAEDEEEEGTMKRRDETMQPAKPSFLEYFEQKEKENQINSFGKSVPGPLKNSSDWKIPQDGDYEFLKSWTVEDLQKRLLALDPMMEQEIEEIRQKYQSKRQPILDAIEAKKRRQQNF

For `Cc1ccc(C2=Nc3cccnc3S(=O)(=O)c3ccccc32)cc1` [TBPT, 6-(p-tolyl)benzo[f] pyrido[2,3-b][1,4] thiazepine 11,11-dioxide], the remaining binding at 5 µM (MST1; 5 μM) was 93%, the remaining binding at 10 µM (MST1; 10 μM) was 100% and the remaining binding at 5 µM (ERK5; 5 μM) was 100%. The remaining binding at 10 µM (ERK5; 10 μM) was 96%, the remaining binding at 5 µM (PAK3; 5 μM) was 100% and the remaining binding at 10 µM (PAK3; 10 μM) was 100%. For the same compound, the remaining binding at 5 µM (HCK; 5 μM) was 93%, the remaining binding at 10 µM (HCK; 10 μM) was 100% and the remaining binding at 5 µM (EGFR(S752-I759del); 5 μM) was 79%. The remaining binding at 10 µM (EGFR(S752-I759del); 10 μM) was 100%, the remaining binding at 5 µM (ADCK3; 5 μM) was 98% and the remaining binding at 10 µM (ADCK3; 10 μM) was 100%. For the same compound, the remaining binding at 5 µM ([1]; 5 μM) was 79%, the remaining binding at 10 µM ([1]; 10 μM) was 100% and the remaining binding at 5 µM (KIT(V559D,T670I); 5 μM) was 94%. It also gave a remaining binding at 10 µM (KIT(V559D,T670I); 10 μM) of 100%, a remaining binding at 5 µM (CSNK2A1; 5 μM) of 100% and a remaining binding at 10 µM (CSNK2A1; 10 μM) of 84%. For the same compound, the remaining binding at 5 µM (PRKCI; 5 μM) was 95%, the remaining binding at 10 µM (PRKCI; 10 μM) was 91% and the remaining binding at 5 µM (DRAK1; 5 μM) was 94%. The remaining binding at 10 µM (DRAK1; 10 μM) was 92%, the remaining binding at 5 µM (JNK2; 5 μM) was 99% and the remaining binding at 10 µM (JNK2; 10 μM) was 100%. The remaining binding at 5 µM (PIM3; 5 μM) was 96%, the remaining binding at 10 µM (PIM3; 10 μM) was 100% and the remaining binding at 5 µM (PLK2; 5 μM) was 100%. For the same compound, the remaining binding at 10 µM (PLK2; 10 μM) was 83%, the remaining binding at 5 µM (TIE2; 5 μM) was 100% and the remaining binding at 10 µM (TIE2; 10 μM) was 91%. For the same compound, the remaining binding at 5 µM (PYK2; 5 μM) was 100%, the remaining binding at 10 µM (PYK2; 10 μM) was 100% and the remaining binding at 5 µM (MAP4K5; 5 μM) was 100%. It also gave a remaining binding at 10 µM (MAP4K5; 10 μM) of 85%, a remaining binding at 5 µM (GRK4; 5 μM) of 100% and a remaining binding at 10 µM (GRK4; 10 μM) of 95%. It also gave a remaining binding at 5 µM (MUSK; 5 μM) of 100%, a remaining binding at 10 µM (MUSK; 10 μM) of 100% and a remaining binding at 5 µM (MAK; 5 μM) of 94%. It also gave a remaining binding at 10 µM (MAK; 10 μM) of 100%, a remaining binding at 5 µM (ZAK; 5 μM) of 94% and a remaining binding at 10 µM (ZAK; 10 μM) of 83%. It also gave a remaining binding at 5 µM (ERK3; 5 μM) of 100%, a remaining binding at 10 µM (ERK3; 10 μM) of 100% and a remaining binding at 5 µM (CSNK1E; 5 μM) of 100%. The remaining binding at 10 µM (CSNK1E; 10 μM) was 96%, the remaining binding at 5 µM (TEC; 5 μM) was 90% and the remaining binding at 10 µM (TEC; 10 μM) was 99%. It also gave a remaining binding at 5 µM ([2]; 5 μM) of 100%, a remaining binding at 10 µM ([2]; 10 μM) of 74% and a remaining binding at 5 µM (CAMKK2; 5 μM) of 97%. It also gave a remaining binding at 10 µM (CAMKK2; 10 μM) of 83%, a remaining binding at 5 µM (PFTK1; 5 μM) of 100% and a remaining binding at 10 µM (PFTK1; 10 μM) of 100%. The remaining binding at 5 µM (IRAK4; 5 μM) was 100%, the remaining binding at 10 µM (IRAK4; 10 μM) was 88% and the remaining binding at 5 µM (IKK-alpha; 5 μM) was 56%. The remaining binding at 10 µM (IKK-alpha; 10 μM) was 75%.
